According to patent US20220362174A1, “Use of R-enantiomer Beta2-agonists for prevent and treatment of pulmonary inflammation and inflammatory remodeling for reduced adverse effects” (priority 2019, published 2022):

Assays:
Format in all cases: in vivo
[1] = tested on: OVA induced asthma mice; assay: Combination therapy of ipratropium with RS-, R- and S-salbutamol: airway resistance in response to methacholine; settings: response to methacholine, OVA + Saline 445%
Description: OVA sensitized/challenged asthma model Mice were sensitized and challenged with ovalbumin (OVA) or normal saline. […] On days 21, 22 and 23, the mice were challenged with 1% OVA in saline (0.01 g/mL) for 20 min via. a nebulizer (PART Turbo boy). […] In vivo airway responsiveness to methacholine (Mch) was assessed on day 28 in conscious, freely moving, spontaneously breathing mice by a whole-body plethysmography (Buxco Electronics Inc.). […] Before Mch challenge, a 20 μL drug aerosol or saline was given to the mice because of the short-acting bronchodilating effect of terbutaline. The degree of bronchoconstriction was expressed as enhanced pause (Penh), a calculated dimensionless value that correlates with measurement of airway resistance, impedance, and intrapleural pressure. […] Methods used were similar as mentioned above. Nebulized aerosol of saline, Methacholine 2 mg/ml (low dose) or 10 mg/ml (high dose) were given via inhalation to OVA induced asthma mice.

[2] = tested on: BALB/c mice; assay: Lung function measurements 6 hours after LPS (Buxco); settings: 5.0 mg/kg
Description: Methods: Survival study: […] Treatment were given intraperitoneally for 3 consecutive days. […] The animals were monitored. Survival rate was then recorded every 12 h for 144 hours. The lung functions were measured with using Buxco system (Buxco Electronics, USA). After a brief acclimation to the chamber, the mice received an initial baseline challenge of saline. Measures were made at 6 hours after administration of LPS, including tidal volume and Penh which is an indication of airway resistance.

[3] = tested on: BALB/c mice; assay: Survival study after LPS challenge (sepsis); settings: 5.0 mg/kg + LPS
Description: Treatment were given intraperitoneally for 3 consecutive days. One hour after the 3rd day treatments, LPS (15 mg/kg) was administered intraperitoneally. The animals were monitored. Survival rate was then recorded every 12 h for 144 hours.

Structure (SMILES)	increase in airway resistance after treatment [1] [%]	Tidal volume ([2]; LPS + saline 0.13 ± 0.03) [mL]	Penh ([2]; LPS + saline 1.31 ± 0.40)	Percent of death after LPS challenges, 12 h ([3]; Saline + LPS 0) [%]	Percent of death after LPS challenges, 24 h ([3]; Saline + LPS 36.4) [%]	Percent of death after LPS challenges, 36 h ([3]; Saline + LPS 72.7) [%]	Percent of death after LPS challenges, 48 h ([3]; Saline + LPS 90.9) [%]	Percent of death after LPS challenges, 72 h ([3]; Saline + LPS 90.9) [%]	Percent of death after LPS challenges, 144 h ([3]; Saline + LPS 90.9) [%]
CC(C)(C)NCC(O)c1ccc(O)c(CO)c1 (racemic) [RS salbutamol, salbutamol]	214								
C[C@@H]1C[C@H]2[C@@H]3CCC4=CC(=O)C=C[C@]4(C)[C@@]3(F)[C@@H](O)C[C@]2(C)[C@@]1(O)C(=O)CO [Dexamethasone, dexamethasone, reference compound]		0.15 ± 0.04	1.01 ± 0.46	0	90.9	90.9	100	100	100
